Test results reported in PubChem BioAssay AID179 (DTP/NCI, 2004).
Several values for one entry are separate records, joined by “and”; a condition that tells them apart may be missing. Equal values may be shown once. Activity calls are given as the source filed them.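 The calls were made as follows: active = compounds giving half or more protection of infected cells from virus-caused growth loss, again on retest; inactive = the rest.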 Where a SMILES comes first, the peptide text is derived from it. [ ]: non-standard residue; d: D form. The star is where a group is joined. Phe(2-OMe) = COc1ccccc1C[CH](N)C(=O)O; Cbz = O=C(OCc1ccccc1)*; OBn = c1ccc(CO*)cc1

Test system: CEM cells HIV-1 protection, formazan growth assay
Test: NCI AIDS Antiviral Assay
Conditions: for IC50: measured here: growth of uninfected CEM cells
Outline: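 Soluble formazan readout of cell growth; CEM cells ± HIV-1; 5 drug concs. ≥50% protection → retest; ≥50% again = moderately active; reproducible 100% = confirmed active.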

Compound	EC50	IC50	outcome
CC1C(=O)NC(=O)CC(=O)NC1=O	> 1350 µM	> 1350 µM	–
COc1cc(/C=N\NS(=O)(=O)c2ccc([N+](=O)[O-])cc2)c([N+](=O)[O-])cc1OC	> 33.1 µM	> 33.1 µM	–
COc1ccc(NC(=O)CC(=O)n2nc(C)c(N=Nc3cccc(C)c3)c2C)cc1	> 200 µM	> 200 µM	–
CC(C)(C)c1cc[n+](C[n+]2ccc(C(C)(C)C)cc2)cc1	> 200 µM	> 200 µM	–
C[C@H]1CCC2C(CN3CCCCC3)C(=O)OC2[C@]2(C)C(=O)CC(N3CCCCC3)C12O (stereo partly drawn)	–	–	inactive
S=CN1CCCCC1	> 200 µM	> 200 µM	–
O=c1oc2ccccc2c(O)c1C(C/C(CCN1CCCC1)=N\Nc1ccccc1)c1ccccc1 (stereo not drawn)	> 97.7 µM	41.7 µM	–
Nc1nc(-c2ccccc2)cc(-c2ccc(F)cc2)c1-c1ccc(Cl)cc1	> 200 µM	132 µM	–
NNc1cnn(-c2ccccc2)c(=O)c1Cl	> 57.5 µM	4.57 µM	–
CCN(CC)CCC1CCCCN1CC(=O)N1c2cc(Cl)ccc2NC(=O)CC1C (stereo not drawn)	> 200 µM	> 200 µM	–
CC1=C[C@H]2O[C@H]3C[C@H]4OC(=O)/C=C\C=C\C(=O)OCC[C@@H](C)C(O)C(=O)OC[C@@]2(CC1)[C@@]4(C)[C@]31CO1 (stereo partly drawn)	> 0.363 µM	0.0112 µM	–
O=C1C2C(C(=O)N1c1ccccc1)C1(c3ccccc3)SC2(c2ccccc2)c2c(-c3ccccc3)sc(-c3ccccc3)c21 (stereo not drawn)	–	–	inactive
CCOc1ccc2nc3nc(=O)[nH]c(C)c3c(NCCCN(CC)CC)c2c1	> 200 µM	> 200 µM	–
NCCCn1c(Cl)nc2ccccc21	> 200 µM	> 200 µM	–
COc1cccc(CCCNC(=O)Cc2ccccc2CO)c1	> 200 µM	> 200 µM	–
CC(=O)OC1C(C)OC(OC2[C@@H]3C=CO[C@@H](OC4OC(CO)C(O)C(O)C4O)[C@@H]3[C@@]3(CO)O[C@@H]23)C(OC(=O)/C=C/c2ccccc2)C1OC(=O)/C=C/c1ccccc1 (stereo partly drawn)	> 21.9 µM	> 21.9 µM	–
O=C(O)C1Cc2nc[nH]c2CN1 (stereo not drawn)	–	–	inactive
CC1(C)C2CCC(O)(C2)C1N (stereo not drawn)	> 200 µM	> 200 µM	–
CC(=O)O[C@]1(C)CCC2C(C)C(=O)OC2C2C(C)[C@@H](O)CC21 (stereo partly drawn)	> 200 µM	34.7 µM	–
COC(=O)C(Cc1c[nH]c2ccccc12)NC(=O)C(Cc1cnc[nH]1)NC(=O)C1CCC(=O)N1C(=O)OCc1ccccc1 (stereo not drawn)	> 200 µM	> 200 µM	–
COc1cc(C2c3cc4c(cc3[C@H](NC(=O)c3cccs3)C3COC(=O)[C@H]23)OCO4)cc(OC)c1OC (stereo partly drawn)	–	–	inactive
COc1ccc(/C=C2/N=C(N/N=C\C(O)C(O)C(O)C(O)CO)NC2=O)cc1 (stereo not drawn)	–	77.6 µM and 112 µM	–

Compound	EC50	IC50	outcome
COc1cccc(/C=N/[N-]C(N)=O)c1[O-].[Cu+2].[OH3+].c1cnc2c(c1)ccc1cccnc12	> 39.8 µM	16.2 µM	–
O=C(c1ccccc1)c1cc2c([nH]c1=O)CCCCC2	> 200 µM	135 µM	–
Cc1cn(C2CC(O)C(CN(O)C(N)=O)O2)c(=O)[nH]c1=O (stereo not drawn)	> 100 µM	> 100 µM	–
Cc1ccc(N2C3=C(CC4=C2CC(C)(C)CC4=O)C(=O)CC(C)(C)C3)cc1	> 100 µM	> 100 µM	–
Cc1ccc(NC(=O)CC(=O)n2nc(-c3ccccc3)c(N=Nc3ccccc3[N+](=O)[O-])c2-c2ccccc2)cc1	> 25.1 µM	> 25.1 µM	–
COc1cc([N+](=O)[O-])ccc1C(=O)Nc1c2ccccc2nc2ccccc12	> 200 µM	0.479 µM	–
Oc1cccc(/C=C/c2ccncc2)c1	> 36.3 µM	> 36.3 µM	–
COc1cc(OCc2ccccc2)c(O)cc1-c1coc2cc(OCc3ccccc3)ccc2c1=O	> 200 µM	4.27 µM	–
O=C(C[P+](c1ccccc1)(c1ccccc1)c1ccccc1)C[P+](c1ccccc1)(c1ccccc1)c1ccccc1	> 200 µM	0.759 µM	–
CC(=O)O[C@@]1(C)C[C@@H](O)[C@]2(O)C=CO[C@@H](OC3OC(CO)C(O)C(O)C3O)[C@@H]21 (stereo partly drawn)	–	–	inactive
CN1C(=O)C(O)(c2c3c(c(C4(O)C(=O)N(C)c5ccccc54)c4c2OCO4)OCO3)c2ccccc21 (stereo not drawn)	> 200 µM	> 200 µM	–
CC(C)(C)c1cc(O)c2c(c1O)C(=O)CCC2	–	–	inactive
c1ccc2nc3c(cc2c1)[nH]c1ccccc13	> 339 µM	204 µM	–
O=S(=O)(Nc1nnc2c3ccccc3cnn12)c1ccc(Cl)cc1S	36.3 µM	490 µM	–
CCc1c2cc(OC)c(OC)cc2cc2c3cc(OC)c(OC)cc3cc[n+]12 (tested in a mixture with another compound)	> 234 µM	33.9 µM	–
O=C(O)c1ccc(SSc2ccc(C(=O)O)cc2)cc1	123 µM	> 200 µM	–
O=C1CCC2(c3ccc(F)cc3)Nc3cc([N+](=O)[O-])ccc3N12 (stereo not drawn)	> 16.6 µM	> 16.6 µM	–
CCC[CH2][Sn]([CH2]CCC)([O]C(=O)c1ccc(OC)c(OC)c1OC)[O][Sn]([CH2]CCC)([CH2]CCC)[O]C(=O)c1ccc(OC)c(OC)c1OC	> 5.75 µM	0.871 µM	–
CCCCC[C@@H]1CCCC2C1CC[C@@H](CC/C=C/C(=O)OC)N2C(=O)OC(C)C(Cl)(Cl)Cl (stereo partly drawn)	–	–	inactive
O=c1[nH]c2cc(C(F)(F)F)ccc2nc1Cc1ccccc1	> 200 µM	> 200 µM	–
NC(=O)c1ccccc1NC(=O)C(=O)Nc1n[nH]c(N)n1	> 871 µM	> 871 µM	–
C[C@@]12c3ccc4c(c3C(=O)c3occ(c31)[C@@H](O)C[C@H]2O)CCC4=O	> 200 µM	17.4 µM	–

Compound	EC50	IC50	outcome
CC1(C)C[C@H](O)[C@H](O)[C@]23C(=O)O[C@H](O)[C@H]2C(C=O)=CC[C@@H]13	> 200 µM	> 200 µM	–
C=CCOc1c(C)cc(C#N)cc1C	–	–	inactive
COC(=O)C(Cc1ccccc1OC)NC(=O)C(CC(=O)OCc1ccccc1)NC(=O)OCc1ccccc1 (stereo not drawn) (Cbz-Asp(OBn)-[Phe(2-OMe)]-OMe; configuration not given here)	> 200 µM	30.2 µM	–
O=[N+]([O-])c1cc2ccc(O)cc2c2ccccc12	51.3 µM	61.7 µM	–
COC(=O)C1=Cc2cc(OC)c(O)cc2[C@@H](c2ccc(O)c(OC)c2)[C@@H]1C(=O)OC	> 200 µM	77.6 µM	–
COC(=O)C1(C(=O)OC)N=C(C)OC1c1ccccn1 (stereo not drawn)	> 200 µM	> 200 µM	–
CN1C(=O)N(C)C2SC(=NCc3ccccc3)NN2C1=O (stereo not drawn)	> 85.1 µM	81.3 µM	–
C=CCCOC(=O)CO[N+](=O)[O-]	–	–	inactive
CC#CCCN(CC#N)Cc1ccccc1	> 200 µM	> 200 µM	–
O=c1[nH]c(=O)n([C@H]2CCCO2)cc1F	> 631 µM	102 µM	–
CN(C)c1nc(=Nc2ccc3c(c2)OCO3)ss1	–	–	inactive
COc1ccc2c(c1)C(O)(C(F)(F)F)c1cc(C(=O)C(F)(F)F)c3ccccc3c1N2 (stereo not drawn)	> 6.17 µM	> 6.17 µM	–
CC(Nc1ccc(Cl)c(Cl)c1)c1ccncc1 (stereo not drawn)	> 200 µM	28.8 µM	–
O=C1Cc2c([nH]c3ccccc23)-c2ccccc2N1	> 105 µM	69.2 µM	–
CN(C)C(F)=PC(F)(F)F (stereo not drawn)	> 251 µM	> 251 µM	–
COc1ccc(C2CC(c3ccc4ccccc4c3O)=NN2C(C)=O)cc1OC (stereo not drawn)	> 50.1 µM	> 50.1 µM	–
COc1cc(N(C)C)c(OC)cc1/C=C1\C=Cc2ccccc21	> 17 µM	> 17 µM	–
CCOC(=O)Cc1cc(=O)oc2c3c(cc(OC(C)C)c12)O[C@H](C)[C@@H](C)C3=O	> 200 µM	195 µM	–
O=C1CCCCC1C1(O)C(=O)Nc2cc(F)ccc21 (stereo not drawn)	> 955 µM	178 µM	–
CCOC(=O)N/N=C(\CC)NO	> 200 µM	> 200 µM	–
C1=C(c2ccccc2)N2CCN=C2S1	> 200 µM	37.2 µM	–
COc1ccc(/C=C/C(=O)O)cc1OC	> 1200 µM	> 1200 µM	–

Compound	EC50	IC50	outcome
O=C1NC2(CCCCC2)C2CCCCCC12 (stereo not drawn)	–	–	inactive
Oc1[nH]c2ccccc2c1N=NC(=S)Nc1ccc(Cl)cc1	> 200 µM	24.5 µM	–
CCCCON1C[C@@H](O)C(O)[C@@H](O)C1 (stereo partly drawn)	> 200 µM	> 200 µM	–
CCc1ccccc1C1(Br)C(=O)c2ccccc2C1=O	> 200 µM	45.7 µM	–
COC1CCC(OS(C)(=O)=O)CO1 (stereo not drawn)	> 200 µM	33.9 µM	–
Cn1c(=O)c2[nH]c(=O)c(C(CO)C(=O)c3ccccc3)nc2n(C)c1=O (stereo not drawn)	> 200 µM	9.55 µM	–
CC(=O)c1ccc(NC(=O)C(=O)C(C#N)CC(C)(C)C=O)cc1 (stereo not drawn)	> 83.2 µM	> 83.2 µM	–
Nc1ncnc2c1nc1n2C2OC(CO)C(O)C2O1 (stereo not drawn)	> 339 µM	> 339 µM	–
O=C(O)C1CCCN1C(=O)c1cc(Cl)ccn1 (stereo not drawn)	> 200 µM	> 200 µM	–
COC(=O)[C@@]12OC[C@]34[C@H]([C@@H](O)[C@@H]1O)[C@@]1(C)CC(=O)C(O)=C(C)[C@@H]1C[C@H]3OC(=O)[C@H](OC(=O)/C=C(\C)C(C)C)[C@@H]24	> 123 µM	0.0389 µM	–
O=C(Cn1c(=O)ccc2ccccc21)Cn1c(=O)ccc2ccccc21	> 200 µM	> 200 µM	–
Cc1cc(C(F)(F)F)nc2nc3ccccc3n12	> 200 µM	> 200 µM	–
O=C(c1ccc(Cl)cc1)c1ccc(OCCSCCCCCCCCCCSCCOc2ccc(C(=O)c3ccc(Cl)cc3)cc2)cc1	> 13.8 µM	> 13.8 µM	–
CC(C)(CO)CNc1cc(Cl)nc(N)n1	> 200 µM	> 200 µM	–
CC1(C)CC(=O)C(C(=O)C(=O)NC2=C(Cl)C(=O)c3ccccc3C2=O)C(=O)C1	> 17.8 µM	–	–
CCCCC[C@@H]1CC=CC(NC(=O)OCc2ccccc2)C1/C=C/C(=O)OCCCC1OCCO1 (stereo partly drawn)	–	–	inactive
CC(C)=C1C2CCC1C1CSCC21 (stereo not drawn)	> 115 µM	> 115 µM	–
CC(=O)OCC1OC(SC2OC(COC(C)=O)C(OC(C)=O)C(OC(C)=O)C2OC(C)=O)C(OC(C)=O)C(OC(C)=O)C1OC(C)=O (stereo not drawn)	97.7 µM	> 200 µM	–
CC1(C)CCC[C@@]2(C)C1CC[C@H]1CC(O)C3(C)CCC12C3 (stereo partly drawn)	> 12.3 µM	> 12.3 µM	–
CN(C(=O)C12C3C4C1C1C2C3C41C#N)C(C)(C)C (stereo not drawn)	> 41.7 µM	> 41.7 µM	–
